Columns and labels:
YlTrm9N19-Trm112 = YlTrm9N19-Trm112 (Yarrowia lipolytica, UniProt Q6C999)
YlTrm9N38-Trm112 = YlTrm9N38-Trm112 (Yarrowia lipolytica, UniProt Q6C999)
[1] = target: YlTrm9-Trm112 (full-length) (Yarrowia lipolytica, UniProt Q6C999)
YlTrm9-Trm112 (full-length), sequence (Q6C999 1-234): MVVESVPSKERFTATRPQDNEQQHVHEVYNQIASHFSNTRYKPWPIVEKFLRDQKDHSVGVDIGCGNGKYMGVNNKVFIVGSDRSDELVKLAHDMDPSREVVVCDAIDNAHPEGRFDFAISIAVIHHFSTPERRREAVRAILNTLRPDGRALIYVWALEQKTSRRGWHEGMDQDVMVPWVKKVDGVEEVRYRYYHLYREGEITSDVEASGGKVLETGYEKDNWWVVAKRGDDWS
YlTrm9-Trm112 (full-length), sequence (Q6C4P5 1-130 partner): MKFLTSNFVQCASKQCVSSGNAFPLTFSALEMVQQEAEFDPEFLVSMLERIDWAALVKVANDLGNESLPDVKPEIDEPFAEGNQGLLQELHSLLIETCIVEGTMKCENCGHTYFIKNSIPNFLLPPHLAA

YlTrm9N38-Trm112, sequence (Q6C999 38-234): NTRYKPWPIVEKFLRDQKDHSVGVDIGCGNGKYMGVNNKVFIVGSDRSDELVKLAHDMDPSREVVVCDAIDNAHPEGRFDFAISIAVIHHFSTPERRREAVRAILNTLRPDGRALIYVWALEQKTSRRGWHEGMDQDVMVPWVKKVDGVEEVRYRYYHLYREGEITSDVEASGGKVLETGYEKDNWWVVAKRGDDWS
YlTrm9N38-Trm112, sequence (Q6C4P5 1-130 partner): as the sequence (Q6C4P5 1-130 partner) above
YlTrm9N19-Trm112, sequence (Q6C999 19-234): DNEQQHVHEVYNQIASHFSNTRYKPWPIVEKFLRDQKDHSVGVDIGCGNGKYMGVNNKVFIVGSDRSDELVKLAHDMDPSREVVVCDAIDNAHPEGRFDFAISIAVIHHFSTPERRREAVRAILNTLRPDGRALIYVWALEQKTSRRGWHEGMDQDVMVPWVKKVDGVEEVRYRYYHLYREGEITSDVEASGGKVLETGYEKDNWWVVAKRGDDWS
YlTrm9N19-Trm112, sequence (Q6C4P5 1-130 partner): as the sequence (Q6C4P5 1-130 partner) above

affinity for SAM (YlTrm9N38-Trm112): displayed the same affinity for SAM | affinity for SAM [1]: displayed the same affinity for SAM
SMILES: C[S+](CC[C@H](N)C(=O)O)C[C@H]1O[C@@H](n2cnc3c(N)ncnc32)[C@H](O)[C@@H]1O (stereo partly drawn) [SAM]
affinity for SAM (YlTrm9N19-Trm112): both truncated forms were strongly affected in their enzymatic activity

Source: PMC4678810 (Nucleic Acids Research, 2015)
